# Assay: Abamectin blood plasma levels after raw active (no excipients) in gelatine capsule, sheep (Example 2)
# Assay type: in vivo
# Settings: oral gelatine capsule, raw active without excipients, 0.2 mg/kg
# Experimental: Given the results in Example 1, a further trial was completed to determine the influence of the formulation on the degree of absorption of abamectin. This was completed by ascertaining baseline levels of abamectin drug bioavailability when animals are dosed with raw active (no excipients).
# Five sheep weighing 59.0 kg to 63.5 kg (mean=61.2 kg) were all dosed with one abamectin treatment, which contained a dose sufficient for a 60 kg animal at the standard dose rate of 0.2 mg/kg for abamectin. The abamectin dose was contained within a gelatine capsule.
# Prior to administration of the invention or Reference formulation, all animals were dosed to their individual liveweight with SCANDA™ (Batch 52888, expiry April 2006) at least 14 days prior to each treatment session, and tested free of strongylid nematodes (via faecal egg count) prior to the commencement of each treatment session.
# Gelatine capsules containing an abamectin drug (one capsule per sheep) were used. All animals were dosed orally with the assistance of a “pill popper”, which was followed immediately by approx 60 ml of tap water. The capsules were dark green in colour, to prevent the light sensitive abamectin from being prematurely exposed to light.
# All animals were blood sampled seven times. […]
substance,measurement,value
abamectin,Abamectin blood plasma peak level,just above the detection threshold
